Tests used:
Histamine H1 receptor [1] = molecular target: T1, Histamine H1 receptor (Homo sapiens, UniProt P35367); format: functional, cell-based
Histamine H1 receptor [2] = molecular target: T1, Histamine H1 receptor; format: functional, cell-based; remark: listed apart in the source
Androgen receptor [3] = molecular target: T2, Androgen receptor (Rattus norvegicus, UniProt P15207); format: functional
T2 sequence (P15207 whole entry): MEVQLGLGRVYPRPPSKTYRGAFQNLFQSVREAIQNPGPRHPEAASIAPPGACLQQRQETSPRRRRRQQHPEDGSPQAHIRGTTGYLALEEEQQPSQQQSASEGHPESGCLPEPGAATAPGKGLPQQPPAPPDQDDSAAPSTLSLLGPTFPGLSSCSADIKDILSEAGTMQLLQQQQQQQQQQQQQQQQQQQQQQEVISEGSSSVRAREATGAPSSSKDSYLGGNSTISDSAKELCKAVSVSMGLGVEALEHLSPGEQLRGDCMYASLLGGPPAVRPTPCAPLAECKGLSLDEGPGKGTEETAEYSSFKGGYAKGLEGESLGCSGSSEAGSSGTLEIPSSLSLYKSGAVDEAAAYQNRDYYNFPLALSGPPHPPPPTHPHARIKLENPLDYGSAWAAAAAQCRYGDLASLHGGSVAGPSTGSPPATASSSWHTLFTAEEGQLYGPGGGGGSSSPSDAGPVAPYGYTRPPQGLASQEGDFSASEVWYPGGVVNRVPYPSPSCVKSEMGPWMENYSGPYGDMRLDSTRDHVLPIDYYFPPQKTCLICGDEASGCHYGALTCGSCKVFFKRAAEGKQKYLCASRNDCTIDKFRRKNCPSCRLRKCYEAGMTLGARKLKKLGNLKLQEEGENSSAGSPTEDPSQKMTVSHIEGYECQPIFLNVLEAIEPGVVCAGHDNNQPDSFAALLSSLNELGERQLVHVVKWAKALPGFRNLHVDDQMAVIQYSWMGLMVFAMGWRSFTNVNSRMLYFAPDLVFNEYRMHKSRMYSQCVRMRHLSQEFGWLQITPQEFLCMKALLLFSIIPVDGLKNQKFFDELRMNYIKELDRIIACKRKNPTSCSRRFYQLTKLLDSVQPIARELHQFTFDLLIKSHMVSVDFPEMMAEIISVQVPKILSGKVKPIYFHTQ

Androgen receptor [4] = molecular target: T2, Androgen receptor
[5] = molecular target: T3, Muscarinic acetylcholine receptor M2 (Homo sapiens, UniProt P08172)
T3 sequence (P08172 whole entry): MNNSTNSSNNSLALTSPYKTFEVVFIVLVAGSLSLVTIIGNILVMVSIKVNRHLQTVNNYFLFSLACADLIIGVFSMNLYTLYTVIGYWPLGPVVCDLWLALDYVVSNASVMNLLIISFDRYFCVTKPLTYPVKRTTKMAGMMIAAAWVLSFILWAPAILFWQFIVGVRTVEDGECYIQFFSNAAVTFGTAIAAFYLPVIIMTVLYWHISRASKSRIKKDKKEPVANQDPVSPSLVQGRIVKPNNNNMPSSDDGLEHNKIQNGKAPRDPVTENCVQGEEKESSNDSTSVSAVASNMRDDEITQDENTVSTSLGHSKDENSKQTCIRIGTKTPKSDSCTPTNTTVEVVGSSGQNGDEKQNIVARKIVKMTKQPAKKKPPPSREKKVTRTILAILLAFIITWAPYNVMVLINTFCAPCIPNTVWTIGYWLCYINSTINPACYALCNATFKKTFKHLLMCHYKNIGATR

[6] = molecular target: 5-hydroxytryptamine receptor 2B (Homo sapiens, UniProt P41595)
[7] = molecular target: T4, Muscarinic acetylcholine receptor M4 (Homo sapiens, UniProt P08173)
T4 sequence (P08173 whole entry): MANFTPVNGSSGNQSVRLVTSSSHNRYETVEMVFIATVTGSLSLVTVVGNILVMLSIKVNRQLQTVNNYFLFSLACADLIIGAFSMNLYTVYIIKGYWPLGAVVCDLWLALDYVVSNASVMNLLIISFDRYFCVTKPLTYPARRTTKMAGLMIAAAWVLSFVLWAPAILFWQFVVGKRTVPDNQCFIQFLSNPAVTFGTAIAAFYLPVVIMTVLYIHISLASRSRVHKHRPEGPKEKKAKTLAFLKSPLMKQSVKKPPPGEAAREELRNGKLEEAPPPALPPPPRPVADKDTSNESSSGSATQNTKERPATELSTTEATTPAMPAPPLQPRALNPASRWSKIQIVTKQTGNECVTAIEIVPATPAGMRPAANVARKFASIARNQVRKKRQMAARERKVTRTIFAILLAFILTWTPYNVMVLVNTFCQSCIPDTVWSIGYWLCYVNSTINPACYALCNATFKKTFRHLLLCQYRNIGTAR

[8] = molecular target: 5-hydroxytryptamine receptor 6 (Homo sapiens, UniProt P50406)
D(1B) dopamine receptor = D(1B) dopamine receptor (Homo sapiens, UniProt P21918)
Estrogen receptor beta = Estrogen receptor beta (Homo sapiens, UniProt Q92731)
Substance-P receptor = Substance-P receptor (Homo sapiens, UniProt P25103)
Substance-K receptor = molecular target: T5, Substance-K receptor (Homo sapiens, UniProt P21452)
T5 sequence (P21452 whole entry): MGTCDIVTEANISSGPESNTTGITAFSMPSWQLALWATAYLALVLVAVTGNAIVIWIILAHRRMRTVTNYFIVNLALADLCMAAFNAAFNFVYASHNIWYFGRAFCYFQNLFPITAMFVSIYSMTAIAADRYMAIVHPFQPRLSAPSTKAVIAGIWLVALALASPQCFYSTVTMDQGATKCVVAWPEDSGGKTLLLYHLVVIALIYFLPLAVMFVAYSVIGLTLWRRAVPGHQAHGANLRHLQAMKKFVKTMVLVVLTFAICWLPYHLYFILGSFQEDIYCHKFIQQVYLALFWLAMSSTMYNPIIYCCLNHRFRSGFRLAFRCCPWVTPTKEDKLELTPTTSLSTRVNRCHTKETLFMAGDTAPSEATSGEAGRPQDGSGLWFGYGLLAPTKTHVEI

[9] = molecular target: Gamma-aminobutyric acid type B receptor subunit 1 (Homo sapiens, UniProt Q9UBS5)
Further: assay procedure not described here.

Sequence of Estrogen receptor beta (Q92731 whole entry): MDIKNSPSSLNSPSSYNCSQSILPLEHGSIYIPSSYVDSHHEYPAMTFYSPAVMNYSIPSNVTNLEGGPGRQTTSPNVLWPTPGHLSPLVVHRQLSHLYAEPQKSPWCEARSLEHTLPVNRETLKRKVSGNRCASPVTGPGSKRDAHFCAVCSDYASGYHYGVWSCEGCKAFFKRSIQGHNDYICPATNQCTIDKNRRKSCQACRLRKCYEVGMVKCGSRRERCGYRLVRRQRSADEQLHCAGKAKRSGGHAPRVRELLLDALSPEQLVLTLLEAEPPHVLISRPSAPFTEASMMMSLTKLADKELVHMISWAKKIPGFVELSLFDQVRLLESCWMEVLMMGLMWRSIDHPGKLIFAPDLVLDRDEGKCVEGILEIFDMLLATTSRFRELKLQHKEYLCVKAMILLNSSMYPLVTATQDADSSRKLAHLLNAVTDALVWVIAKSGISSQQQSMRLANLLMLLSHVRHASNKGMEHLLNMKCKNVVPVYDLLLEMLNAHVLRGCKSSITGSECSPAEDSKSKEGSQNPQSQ
Sequence of 5-hydroxytryptamine receptor 6 (P50406 whole entry): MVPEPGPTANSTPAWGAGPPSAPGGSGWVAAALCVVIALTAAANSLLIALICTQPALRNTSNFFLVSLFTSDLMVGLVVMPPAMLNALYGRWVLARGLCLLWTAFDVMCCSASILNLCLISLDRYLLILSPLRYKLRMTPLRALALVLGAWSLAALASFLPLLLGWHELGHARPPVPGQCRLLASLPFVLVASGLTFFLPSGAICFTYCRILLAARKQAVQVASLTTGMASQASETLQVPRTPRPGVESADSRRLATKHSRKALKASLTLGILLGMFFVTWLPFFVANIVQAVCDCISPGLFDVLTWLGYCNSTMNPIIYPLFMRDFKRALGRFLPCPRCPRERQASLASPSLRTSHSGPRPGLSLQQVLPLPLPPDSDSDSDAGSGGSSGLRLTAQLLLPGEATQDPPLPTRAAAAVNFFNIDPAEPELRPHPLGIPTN
T1 sequence (P35367 whole entry): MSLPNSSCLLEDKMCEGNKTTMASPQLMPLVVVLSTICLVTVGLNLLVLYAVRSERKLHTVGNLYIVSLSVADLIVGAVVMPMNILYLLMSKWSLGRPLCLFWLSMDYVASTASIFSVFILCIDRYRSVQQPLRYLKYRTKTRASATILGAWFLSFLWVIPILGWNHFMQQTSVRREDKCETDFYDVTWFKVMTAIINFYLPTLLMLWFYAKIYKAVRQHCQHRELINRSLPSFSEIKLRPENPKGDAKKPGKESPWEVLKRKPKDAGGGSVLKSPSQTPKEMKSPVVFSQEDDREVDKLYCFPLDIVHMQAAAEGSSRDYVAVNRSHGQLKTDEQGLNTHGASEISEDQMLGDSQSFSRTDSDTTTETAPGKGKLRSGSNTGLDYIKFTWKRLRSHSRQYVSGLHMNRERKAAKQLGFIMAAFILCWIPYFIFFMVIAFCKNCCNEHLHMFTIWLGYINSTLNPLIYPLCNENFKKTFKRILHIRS
Sequence of Substance-P receptor (P25103 whole entry): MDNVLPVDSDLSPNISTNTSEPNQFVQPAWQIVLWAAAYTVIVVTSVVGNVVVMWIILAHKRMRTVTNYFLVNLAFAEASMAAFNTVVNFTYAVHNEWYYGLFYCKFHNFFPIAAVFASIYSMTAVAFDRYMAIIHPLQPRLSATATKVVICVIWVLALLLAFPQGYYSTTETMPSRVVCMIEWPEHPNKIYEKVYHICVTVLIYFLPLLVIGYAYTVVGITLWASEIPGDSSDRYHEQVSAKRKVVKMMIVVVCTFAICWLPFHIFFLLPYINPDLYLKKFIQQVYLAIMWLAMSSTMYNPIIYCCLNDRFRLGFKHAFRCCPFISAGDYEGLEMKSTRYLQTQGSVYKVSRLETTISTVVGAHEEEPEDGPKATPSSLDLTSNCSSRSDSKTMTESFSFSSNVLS
Sequence of 5-hydroxytryptamine receptor 2B (P41595 whole entry): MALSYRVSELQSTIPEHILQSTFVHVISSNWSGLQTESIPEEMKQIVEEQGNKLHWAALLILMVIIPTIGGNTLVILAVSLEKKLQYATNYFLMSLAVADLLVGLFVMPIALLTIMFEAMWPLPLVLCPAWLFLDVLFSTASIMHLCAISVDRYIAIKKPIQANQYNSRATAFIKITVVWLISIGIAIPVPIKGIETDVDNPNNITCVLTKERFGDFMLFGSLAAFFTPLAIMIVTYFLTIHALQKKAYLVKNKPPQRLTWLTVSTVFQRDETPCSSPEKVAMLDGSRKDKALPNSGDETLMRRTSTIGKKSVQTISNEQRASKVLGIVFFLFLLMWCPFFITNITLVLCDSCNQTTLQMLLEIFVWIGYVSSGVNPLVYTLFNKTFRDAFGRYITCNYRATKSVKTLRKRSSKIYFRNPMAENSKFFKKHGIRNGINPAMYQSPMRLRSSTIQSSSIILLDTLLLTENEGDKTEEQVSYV
Sequence of D(1B) dopamine receptor (P21918 whole entry): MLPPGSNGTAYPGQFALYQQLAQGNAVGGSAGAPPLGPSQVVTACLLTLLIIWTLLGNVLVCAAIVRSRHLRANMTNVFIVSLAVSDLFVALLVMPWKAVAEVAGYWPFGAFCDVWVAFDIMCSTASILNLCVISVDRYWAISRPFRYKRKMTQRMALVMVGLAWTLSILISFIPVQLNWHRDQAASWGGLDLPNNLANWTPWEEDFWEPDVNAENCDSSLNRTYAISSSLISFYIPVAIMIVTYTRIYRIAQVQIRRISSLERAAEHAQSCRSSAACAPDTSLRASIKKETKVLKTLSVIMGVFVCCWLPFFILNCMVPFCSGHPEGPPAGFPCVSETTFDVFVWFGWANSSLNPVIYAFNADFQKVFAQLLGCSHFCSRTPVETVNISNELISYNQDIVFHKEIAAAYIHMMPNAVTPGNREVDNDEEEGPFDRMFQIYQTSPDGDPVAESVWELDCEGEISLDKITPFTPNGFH
Sequence of Gamma-aminobutyric acid type B receptor subunit 1 (Q9UBS5 whole entry): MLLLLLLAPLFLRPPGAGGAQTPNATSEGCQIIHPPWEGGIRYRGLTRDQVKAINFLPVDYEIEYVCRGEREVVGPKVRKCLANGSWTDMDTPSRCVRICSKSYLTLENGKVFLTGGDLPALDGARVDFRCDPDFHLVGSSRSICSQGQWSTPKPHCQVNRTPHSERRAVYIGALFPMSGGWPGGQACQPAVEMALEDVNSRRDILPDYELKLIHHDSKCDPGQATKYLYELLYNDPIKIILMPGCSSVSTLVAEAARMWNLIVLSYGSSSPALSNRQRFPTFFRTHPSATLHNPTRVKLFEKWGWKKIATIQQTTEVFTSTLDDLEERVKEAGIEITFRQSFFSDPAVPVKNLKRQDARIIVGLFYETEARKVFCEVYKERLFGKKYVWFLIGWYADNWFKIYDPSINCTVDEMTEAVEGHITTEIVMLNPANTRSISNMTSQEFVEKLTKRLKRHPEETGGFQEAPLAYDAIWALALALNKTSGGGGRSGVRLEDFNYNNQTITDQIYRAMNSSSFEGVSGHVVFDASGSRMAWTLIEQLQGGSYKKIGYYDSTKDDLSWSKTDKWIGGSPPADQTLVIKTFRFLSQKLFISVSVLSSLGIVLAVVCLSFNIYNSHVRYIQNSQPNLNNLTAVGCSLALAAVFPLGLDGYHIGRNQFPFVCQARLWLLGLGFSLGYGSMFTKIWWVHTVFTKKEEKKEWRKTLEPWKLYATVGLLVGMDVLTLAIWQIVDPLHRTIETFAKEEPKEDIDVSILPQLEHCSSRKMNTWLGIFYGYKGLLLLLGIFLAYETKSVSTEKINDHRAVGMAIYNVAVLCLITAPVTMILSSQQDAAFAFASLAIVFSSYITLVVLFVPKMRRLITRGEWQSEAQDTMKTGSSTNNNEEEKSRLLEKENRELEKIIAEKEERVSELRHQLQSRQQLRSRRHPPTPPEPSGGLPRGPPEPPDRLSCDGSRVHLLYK

SMILES | AC50 (Androgen receptor [4]) | AC50 [5] | AC50 [6] | AC50 (Estrogen receptor beta) | AC50 (Substance-P receptor) | further results
CCCC(=O)N1CCCN(c2nc(N)c3cc(OC)c(OC)cc3n2)CC1 [BUNAZOSIN] |  |  |  |  |  | AC50 (Histamine H1 receptor [1]): > 30 µM; AC50 (Histamine H1 receptor [2]): > 30 µM; AC50 (Androgen receptor [3]): > 30 µM
C[N+](C)(C)CCOC(N)=O [CARBAMOYLCHOLINE] | > 10 µM |  |  |  |  | 
CC(C)(N)Cc1ccc(Cl)cc1 [CHLORPHENTERMINE] |  | > 10 µM | 3 µM |  |  | 
CN(C)[C@@H]1C(O)=C(C(N)=O)C(=O)[C@@]2(O)C(O)=C3C(=O)c4c(O)ccc(Cl)c4[C@@H](O)[C@H]3C[C@@H]12 [DEMECLOCYCLINE] | 2.6 µM |  |  |  |  | 
O=C(Nc1ccccc1)OCC(CN1CCCCC1)OC(=O)Nc1ccccc1 (centres undefined) [DIPERODON] |  | > 10 µM | 1.96 µM | > 30 µM | > 10 µM | AC50 [7]: > 10 µM; AC50 [8]: > 10 µM; AC50 (D(1B) dopamine receptor): > 10 µM; AC50 (Substance-K receptor): > 10 µM
C=C1C[C@@H]2[C@H](CC[C@]3(C)C(=O)CC[C@@H]23)[C@@]2(C)C=CC(=O)C=C12 [EXEMESTANE] |  | > 10 µM |  | > 30 µM |  | AC50 (Histamine H1 receptor [1]): > 30 µM; AC50 (Histamine H1 receptor [2]): > 30 µM
CS(=O)(=O)Nc1cc2occ(NC=O)c(=O)c2cc1Oc1ccccc1 [IGURATIMOD] |  |  |  |  |  | AC50 (Androgen receptor [3]): > 30 µM
CC(C)NCC1CCc2cc(CO)c([N+](=O)[O-])cc2N1 (centres undefined) [OXAMNIQUINE] | > 10 µM |  |  |  |  | 
CN(C)CCCN1c2ccccc2Sc2ccccc21 [PROMAZINE] |  | 0.999 µM | 0.192 µM | > 30 µM | > 10 µM | AC50 [7]: 1.44 µM; AC50 [8]: 0.242 µM; AC50 (D(1B) dopamine receptor): 5.78 µM; AC50 (Substance-K receptor): > 10 µM
O=P(O)(O)C(O)(Cc1cccnc1)P(=O)(O)O [RISEDRONIC ACID] |  |  | > 10 µM |  | > 10 µM | AC50 [8]: > 10 µM; AC50 [9]: > 10 µM
O=C1CCC(N2C(=O)c3ccccc3C2=O)C(=O)N1 (centres undefined) [THALIDOMIDE] |  | > 10 µM | > 10 µM | > 30 µM | > 10 µM | AC50 [9]: > 10 µM
CC(=O)N[C@H]1[C@H]([C@H](O)[C@H](O)CO)OC(C(=O)O)=C[C@@H]1N=C(N)N [ZANAMIVIR] | > 30 µM |  |  |  |  | 

From ChEMBL document CHEMBL5291721, “A preclinical secondary pharmacology resource illuminates target-adverse drug reaction associations of marketed drugs” (Nat Commun, 2023)
